Results reported in EP0877031A1, “TGF-Beta1 derived peptides mimicking the activity of transforming growth factor-Beta1” (INSTITUUT VOOR DIERHOUDERIJ EN DIERGEZONDHEID (ID-DLO), priority 1997, dated 1998).

Columns and labels:
[1] = tested on: Mink lung epithelial cells (Mv 1 Lu); experiment: Mv 1 Lu growth inhibition assay for agonistic TGF activity (peptides alone, acid phosphatase readout); format: cell-based; conditions: peptide alone, 5 days of incubation, acid phosphatase activity as marker for cell growth
Description: (§1) An assay for TGF-β1 biological activity, bases on Mink lung epithelial cells (Mv 1 Lu), was used for analysis of the biological activity of peptides derived from the human TGF-β1 primary sequence. This assay is based on growth inhibition of Mv 1 Lu cells in presence of TGF-β1. Inhihition of Mv 1 Lu growth is quantified by acid phosphatase activity as a marker for cell growth.
(§2) Mink lung epithelial cells (Mv 1 Lu) were plated in 96-well tissue culture plates (Costar, Cambridge, MA) at 100 cells/well in 100 µl Eagle's MEM supplemented with 20IE/ml penicillin, 1 mg/ml streptomycin, 0.4 mM L-glutamine, 10 mM HEPES and 10% FCS (HyClone, Logan, UT). Plates were incubated at 37°C and 5% CO2 in a humidified incubator for 1.5 h to allow cell attachment. After cell attachment peptides were added in a volume of 50 µl in Eagle's MEM supplemented with 20IE/ml penicillin, 1 mg/ml streptomycin, 0.4 mM L-glutamine, 10 mM HEPES and 10% FCS and titrated with eight threefold dilutions of peptide. The cells were subsequently incubated for 5 days at 37°C and 5% CO2 in a humidified incubator. After incubation cell growth was monitored using acid phosphatase activity as a marker: The plates were washed twice with 200 µl PBS per well and 100 µl of substrate solution (0.1 M sodium acetate, 0,1% Triton X-100, 3.7 mg/ml p-nitrophenyl phosphate, pH 5.5) were added to each well. The plates were then incubated for 1.5 h at 37°C, after which 25 µl of 0.4 M NaOH were added to each well. Acid phosphatase activity was detected by measuring the OD of the substrate solution using an microplate reader at 405 nm.
In this example, all peptides comprising 12 amino acids prepared as described under the head "Peptide synthesis", were tested in the Mv 1 Lu growth inhibition assay. In this assay peptides were titrated in eight threefold dilutions, starting with a peptide quantity of 10-100 µg per well. After 5 days of incubation the wells were tested for acid phosphatase activity.

[2] = tested on: Mink lung epithelial cells (Mv 1 Lu); experiment: Mv 1 Lu growth inhibition assay, preincubation with peptides followed by a suboptimal quantity of TGF-β1; format: cell-based; conditions: 4 h preincubation with peptide, then suboptimal 3.3 x 10^-3 µM TGF-β1, 5 days of incubation
Description: as §1, §2
In this example Mv 1 Lu cells were preincubated with TGF-β1 derived peptides which were titrated in eight threefold dilutions, starting with a peptide quantity of 10-100 µg per well. After 4 h of preincubation a suboptimal quantity of 3.3 x 10^-3 µM TGF-β1. The TGF-β1 (R&D systems, M1) Porcine TGF-β1 is 100% homologue to humam TGF-β1 (Roberts et al. in Handbook of Experimental Pharmacology, Editors Sporn, M.B.; Robers A.B.; Springer Verlag Heidelberg (1990), 95, 419) was added. After 5 days of incubation the wells were tested for acid phosphatase activity.

**Q.** What does the source list for CCVRQLYIDFRK?
**A.** growth inhibition of mink lung epithelial cells (TGF agonist activity) [1]: inhibited the growth of mink lung epithelial cells in a similar way as TGF-β1 does; enhanced inhibition of the growth of mink lung epithelial cells when combined with TGF-β1 (synergistic effect) [2]: enhanced inhibition of the growth of the mink lung epithelial cells

**Q.** For CFSSTEKNCCVR, which “growth inhibition of mink lung epithelial cells (TGF agonist activity)” value (“growth inhibition” for short) [1] is on record?
**A.** inhibited the growth of mink lung epithelial cells in a similar way as TGF-β1 does

**Q.** How did the “growth inhibition” value [1] turn out when EKNCCVRQLYID was run?
**A.** inhibited the growth of mink lung epithelial cells in a similar way as TGF-β1 does

**Q.** How did the “growth inhibition” value [1] turn out when FSSTEKNCCVRQ was run?
**A.** inhibited the growth of mink lung epithelial cells in a similar way as TGF-β1 does

**Q.** HNPGASAAPCCV was tested. Which “enhanced inhibition of the growth of mink lung epithelial cells when combined with TGF-β1 (synergistic effect)” value (from here on “enhanced inhibition”) [2] did it give?
**A.** enhanced inhibition of the growth of the mink lung epithelial cells

**Q.** With KNCCVRQLYIDF as the sequence, how does the “enhanced inhibition” value [2] read?
**A.** enhanced inhibition of the growth of the mink lung epithelial cells

**Q.** What does the source list for LSNMIVRSCKCS?
**A.** growth inhibition of mink lung epithelial cells (TGF agonist activity) [1]: inhibited the growth of mink lung epithelial cells in a similar way as TGF-β1 does; enhanced inhibition of the growth of mink lung epithelial cells when combined with TGF-β1 (synergistic effect) [2]: enhanced inhibition of the growth of the mink lung epithelial cells

**Q.** Which “growth inhibition” value [1] does the source give for NCCVRQLYIDFR here?
**A.** inhibited the growth of mink lung epithelial cells in a similar way as TGF-β1 does

**Q.** And the “enhanced inhibition” value [2]?
**A.** enhanced inhibition of the growth of the mink lung epithelial cells

**Q.** QHNPGASAAPCC was tested. Which “enhanced inhibition” value [2] did it give?
**A.** enhanced inhibition of the growth of the mink lung epithelial cells
